Test results taken from ChEMBL document CHEMBL1201862, “PubChem BioAssay data set” (2004).
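Cultured in 96-well plates, cells were exposed to test compound for 48 hours across five concentrations. GI50 marks 50% less growth.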 Calls of active or inactive are those of the source. No stated cut-off is given here; in the data, active = GI50 up to about 1.1 µM and inactive = higher.

Legend:
Experiment in all cases: NCI anticancer screen, dose series, 48 h
786-0 = test system: 786-0
DMS-273 = test system: DMS-273
LXFL 529 = test system: LXFL 529
M14 = test system: M14
SNB-78 = test system: SNB-78
NCI/ADR-RES = test system: NCI/ADR-RES
BT-549 = test system: BT-549
Hs-578T = test system: Hs-578T

Row | SMILES | GI50 (786-0) | GI50 (DMS-273) | GI50 (LXFL 529) | GI50 (M14) | GI50 (SNB-78) | GI50 (NCI/ADR-RES) | GI50 (BT-549) | GI50 (Hs-578T)
1 | Cc1cc(C)nc(NS(=O)(=O)c2ccc(NC(=O)c3cccn4c(=O)c5ccccc5nc34)cc2)n1 | > 100 µM (inactive) | 34.4 µM (inactive) | 29.3 µM (inactive) | 50.7 µM (inactive) | 39.4 µM (inactive) |  |  | 
2 | COc1cc(/C=C/c2ccc(OC)c(OC)c2)oc(=O)c1 |  | > 110 µM (inactive) |  |  | 150 µM (inactive) | > 250 µM (inactive) |  | 
3 | CCCCN1CN2C(=O)C(C(=O)OCC)C(=O)c3sc4nc(SC)nc1c4c32 (stereo not drawn) |  |  |  | 22.4 µM (inactive) |  | 19 µM (inactive) | 16.6 µM (inactive) | < 0.01 µM (active)
4 | O=NN(CCCl)C(=O)N[C@H]1CC[C@@H](O)CC1 |  | 34.8 µM (inactive) |  |  | 24.7 µM (inactive) | 23.3 µM (inactive) |  | 
5 | CCOC(=O)c1ccc(C)c(/N=N/N(C)C)c1 | > 100 µM (inactive) | > 100 µM (inactive) |  | > 100 µM (inactive) |  |  |  | 
6 | COc1cccc(N2C(Cl)C(=O)C2c2c[nH]c3ccccc23)c1 (stereo not drawn) |  |  | > 100 µM (inactive) | > 100 µM (inactive) |  |  |  | 
7 | CC(C)NC(=O)OCc1c(CO)c2c(n1C)-c1ccccc1CC2 |  | 26.8 µM (inactive) |  |  | 33.8 µM (inactive) | 24.5 µM (inactive) |  | 
8 | COc1ccc(CN/C=N/C(C#N)=C(\N)C#N)cc1OC | > 100 µM (inactive) |  |  | > 100 µM (inactive) |  | > 100 µM (inactive) | 72.3 µM (inactive) | > 100 µM (inactive)
9 | CCOC(=O)Cn1c(=O)c(C)cn(COCCO)c1=O |  |  |  | > 100 µM (inactive) |  | > 100 µM (inactive) | > 100 µM (inactive) | > 100 µM (inactive)
10 | Cc1ccc(S(=O)(=O)NC(=N)N(C)N=O)cc1 | > 100 µM (inactive) |  |  | > 100 µM (inactive) |  | > 100 µM (inactive) | > 100 µM (inactive) | > 100 µM (inactive)
11 | Cc1ccc(C2COc3cc(O)c(O)cc3C2)cc1 (stereo not drawn) |  | 16.2 µM (inactive) |  |  | 31.6 µM (inactive) | 15.7 µM (inactive) |  | 
12 | CN(C)CC(C)(C)/C(=N\Nc1ccccc1)c1ccccc1 | 45.3 µM (inactive) | 33.5 µM (inactive) | 18.7 µM (inactive) | 21.9 µM (inactive) | 70.1 µM (inactive) |  |  | 
13 | O=C(Nc1ccccc1)c1nn(-c2cc(S(=O)(=O)O)c([N+](=O)[O-])cc2Cl)[n+](-c2cc(S(=O)(=O)[O-])c([N+](=O)[O-])cc2Cl)n1 | > 100 µM (inactive) |  |  | > 100 µM (inactive) |  | > 100 µM (inactive) |  | > 100 µM (inactive)
14 | CCCCS(=N)(=O)CC[C@H](N)C(=O)O (stereo partly drawn) [BUTHIONINE SULFOXIME] |  | > 5000 µM (inactive) |  | > 5000 µM (inactive) | > 5000 µM (inactive) | 2840 µM (inactive) | > 5000 µM (inactive) | > 2810 µM (inactive)
15 | CCCCCCCCCCCCCCCCSCC(COC)COP(=O)([O-])OCC[N+](C)(C)C (stereo not drawn) [ILMOFOSINE] |  | 1.85 µM (inactive) |  |  | 10.2 µM (inactive) | 16.5 µM (inactive) |  | 
